According to US20110319790A1, “PHARMACEUTICAL COMPOSITION AND SYSTEM FOR PERMEABILIZING FETAL MEMBRANES” (B.G. NEGEV TECHNOLOGIES AND APPLICATIONS LTD., priority 2008, published 2011):

System: postpartum human fetal membranes
Assay: Permeability of postpartum human fetal membranes to FITC-Dextran in a vertical glass diffusion cell after incubation with a substance
Conditions: FIG. 8, 30 minutes incubation, FITC-Dextran 77 KDa, maternal side facing donor compartment
Method: The permeability of postpartum human fetal membranes (obtained from Hillel Yaffe Medical Center, Israel) upon exposure to different substances was determined. The experimental set-up used is shown schematically in FIG. 7. […] The membrane 171 was first incubated with a substance 176 added to the donor compartment 173. After 30 minutes of incubation, the substance was removed from the donor compartment 173. The donor compartment was then washed with PBS, and the donor and receiver compartments were filled with 0.01M phosphate buffered Saline (PBS) 175. 5 mL of a 0.5 mg/mL Dextran solution in PBS (average molecular weight of the Dextran 77 KDa) conjugated to the fluorescent label FITC (fluorescein isothiocyanate-Dextran)) 179 was added to the donor compartment 173. The diffusion cell 172 was protected from light in order to prevent fluorescent bleaching of the FITC. 1 mL samples were withdrawn from the receiver compartment 174 at various times with constant stirring of the receiver compartment, and the concentration of the FITC in the samples was determined spectofluorimetrically.
From the rate of increase in the concentration of the fluorescence in the receiver compartment 174, the extent of permeability enhancement of the membrane, in comparison to a control experiment was calculated.

Structure (SMILES): CCCCCCCCCCCCCCCC[N+](C)(C)C.[Br-] [Cetyl trimethylammonium bromide (CTAB), Cetyl trimethylammonium bromide]
- enhancement in permeability of the membrane compared to control (substance at 4%): Enhanced permeability

Structure (SMILES): CN1CCCC1=O [N-methy-2-pyrrolidone (NMP), N-methy-2-pyrrolidone]
- enhancement in permeability of the membrane compared to control (concentration not given): Enhanced permeability

Structure (SMILES): CCCCCCCC/C=C\CCCCCCCC(=O)O [Oleic acid]
- enhancement in permeability of the membrane compared to control (substance at 1.5%): Enhanced permeability

Structure (SMILES): CCCCCCCCCCCCOS(=O)(=O)[O-].[Na+] [SLS, sodium lauryl sulfate]
- enhancement in permeability of the membrane compared to control (substance at 1%): Enhanced permeability

Structure (SMILES): CCCCN1CCCCC1C(=O)Nc1c(C)cccc1C (stereo not shown) [bupivacaine]
- enhancement in permeability of the membrane compared to control (substance at 0.5%): Enhanced permeability

Structure (SMILES): OCCO [ethylene glycol]
- enhancement in permeability of the membrane compared to control (substance at 10%): Enhanced permeability

Structure (SMILES): CC(C)CCCCCCCCCCCCCCC(=O)O [iso-stearic acid]
- enhancement in permeability of the membrane compared to control (substance at 10%): Enhanced permeability
